Assay results as given in paper PMC11992225, “Antibacterial compounds against non-growing and intracellular bacteria” (npj Antimicrobials and Resistance, 2025).

Key:
[1] = system: non-growing S. aureus DSM2569; experiment: Dose-dependent killing analysis (CFU spot-plating) of stationary-phase S. aureus;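 on average Δlog10(CFU/ml) (killing): drug concentration in µM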; assay type: cell-based, Staphylococcus aureus; settings: S. aureus; for average Δlog10(CFU/ml) (killing): vs 9,097 before treatment
Method: To determine the spectrum of activity of the compounds that were effective against non-growing UPEC, we further assessed their efficacy against the well-characterized Gram-negative and Gram-positive reference strains P. aeruginosa DSM1117 and S. aureus DSM2569, respectively. The cultures were grown and treated for 24 h in 1:4 CA-MHB (pH 7.4). […].
For survival analysis, bacteria were cultivated as described for the dose–response dilution-regrowth assay. Assays with UPEC were conducted at the CBCS screening facility using 96-well plates with a 200 μl sample volume, and compounds were dispensed using the Echo® (Labcyte) system. P. aeruginosa and S. aureus samples were treated according to the protocol used for the dilution-regrowth experiments. Treated samples were serially diluted 10-fold in PBS, and 10 μl drops were spot-plated onto rectangular LB agar plates using either a Beckman NXP robot (for UPEC) or an Integra VIAFLO96 electronic pipette (for P. aeruginosa and S. aureus). The LB agar plates were incubated overnight at 37 °C and scanned. Colonies were counted at the spots of the lowest dilution where individual colonies could be accurately distinguished. Each colony was manually marked on a separate image layer using the GNU Image Manipulation Program, and counted using NIST’s Integrated Colony Enumerator (NICE 1.4) software. The experiments were performed in three biological replicates.

non-growing UPEC CFT073 = experiment: Dose-dependent killing analysis (CFU spot-plating) of stationary-phase UPEC; assay type: cell-based, Escherichia coli;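 on average Δlog10(CFU/ml) (killing): drug concentration in µM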
How it was run: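 Killing assessed by CFU counts: overnight 37 °C LB agar spot plates (10 μl drops of 10-fold PBS dilutions) scored at the lowest dilution with distinct colonies. Samples were compound-treated non-growing UPEC CFT073, 200 μl per well. Performed as three biological replicates.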

[2] = E. coli in 1:4 CA-MHB (pH 7.4), drug conc. 0.25
[3] = E. coli in 1:4 CA-MHB (pH 7.4), drug conc. 0.5
[4] = E. coli in 1:4 CA-MHB (pH 7.4), drug conc. 1
[5] = E. coli in 1:4 CA-MHB (pH 7.4), drug conc. 2.5
[6] = E. coli in 1:4 CA-MHB (pH 7.4), drug conc. 5
[7] = E. coli in 1:4 CA-MHB (pH 7.4), drug conc. 10
[8] = E. coli in LPM (pH 5.5), drug conc. 0.25
[9] = E. coli in LPM (pH 5.5), drug conc. 0.5
[10] = E. coli in LPM (pH 5.5), drug conc. 1
[11] = E. coli in LPM (pH 5.5), drug conc. 2.5
[12] = E. coli in LPM (pH 5.5), drug conc. 5
[13] = E. coli in LPM (pH 5.5), drug conc. 10

For `N#Cc1c(N2C[C@@H]3NCCO[C@H]3C2)c(F)cc2c(=O)c(C(=O)O)cn(C3CC3)c12` [Finafloxacin], the “log10(CFU/ml) after treatment, replicate 1” value (shortened to “log10(CFU/ml) … replicate 1”) ([1]; drug conc. 0.1) was 8.820 log10(CFU/ml), the “log10(CFU/ml) after treatment, replicate 2” value (shortened to “log10(CFU/ml) … replicate 2”) ([1]; drug conc. 0.1) was 9.041 log10(CFU/ml) and the “log10(CFU/ml) after treatment, replicate 3” value (shortened to “log10(CFU/ml) … replicate 3”) ([1]; drug conc. 0.1) was 8.982 log10(CFU/ml). For the same compound, the “average Δlog10(CFU/ml) (killing)” value ([1]; drug conc. 0.1) was 0.149 log10(CFU/ml), the “log10(CFU/ml) … replicate 1” value ([1]; drug conc. 0.5) was 8.857 log10(CFU/ml) and the “log10(CFU/ml) … replicate 2” value ([1]; drug conc. 0.5) was 9.176 log10(CFU/ml). The “log10(CFU/ml) … replicate 3” value ([1]; drug conc. 0.5) was 9.090 log10(CFU/ml), the “average Δlog10(CFU/ml) (killing)” value ([1]; drug conc. 0.5) was 0.056 log10(CFU/ml) and the “log10(CFU/ml) … replicate 1” value ([1]; drug conc. 2.5) was 8.820 log10(CFU/ml). For the same compound, the “log10(CFU/ml) … replicate 2” value ([1]; drug conc. 2.5) was 8.954 log10(CFU/ml), the “log10(CFU/ml) … replicate 3” value ([1]; drug conc. 2.5) was 8.820 log10(CFU/ml) and the “average Δlog10(CFU/ml) (killing)” value ([1]; drug conc. 2.5) was 0.233 log10(CFU/ml). For the same compound, the “log10(CFU/ml) … replicate 1” value ([1]; drug conc. 10) was 8.633 log10(CFU/ml), the “log10(CFU/ml) … replicate 2” value ([1]; drug conc. 10) was 8.996 log10(CFU/ml) and the “log10(CFU/ml) … replicate 3” value ([1]; drug conc. 10) was 8.623 log10(CFU/ml). The “average Δlog10(CFU/ml) (killing)” value ([1]; drug conc. 10) was 0.346 log10(CFU/ml), the “bactericidal effect against stationary-phase UPEC cultures” value (non-growing UPEC CFT073; 20 µM, preliminary experiments) was “bactericidal effects” and the “log10(CFU/ml) … replicate 1” value (non-growing UPEC CFT073; [2]) was 9.322 log10(CFU/ml). For the same compound, the “log10(CFU/ml) … replicate 2” value (non-growing UPEC CFT073; [2]) was 8.602 log10(CFU/ml), the “log10(CFU/ml) … replicate 3” value (non-growing UPEC CFT073; [2]) was 8.301 log10(CFU/ml) and the “average Δlog10(CFU/ml) (killing)” value (non-growing UPEC CFT073; E. coli in 1:4 CA-MHB (pH 7.4), drug conc. 0.25, vs 8.977 before treatment) was 0.236 log10(CFU/ml). The “log10(CFU/ml) … replicate 1” value (non-growing UPEC CFT073; [3]) was 9.255 log10(CFU/ml), the “log10(CFU/ml) … replicate 2” value (non-growing UPEC CFT073; [3]) was 8.903 log10(CFU/ml) and the “log10(CFU/ml) … replicate 3” value (non-growing UPEC CFT073; [3]) was 8.845 log10(CFU/ml). For the same compound, the “average Δlog10(CFU/ml) (killing)” value (non-growing UPEC CFT073; E. coli in 1:4 CA-MHB (pH 7.4), drug conc. 0.5, vs 8.977 before treatment) was -0.024 log10(CFU/ml), the “log10(CFU/ml) … replicate 1” value (non-growing UPEC CFT073; [4]) was 9.322 log10(CFU/ml) and the “log10(CFU/ml) … replicate 2” value (non-growing UPEC CFT073; [4]) was 8.845 log10(CFU/ml). For the same compound, the “log10(CFU/ml) … replicate 3” value (non-growing UPEC CFT073; [4]) was 8.699 log10(CFU/ml), the “average Δlog10(CFU/ml) (killing)” value (non-growing UPEC CFT073; E. coli in 1:4 CA-MHB (pH 7.4), drug conc. 1, vs 8.977 before treatment) was 0.022 log10(CFU/ml) and the “log10(CFU/ml) … replicate 1” value (non-growing UPEC CFT073; [5]) was 9.176 log10(CFU/ml). For the same compound, the “log10(CFU/ml) … replicate 2” value (non-growing UPEC CFT073; [5]) was 9.041 log10(CFU/ml), the “log10(CFU/ml) … replicate 3” value (non-growing UPEC CFT073; [5]) was 8.230 log10(CFU/ml) and the “average Δlog10(CFU/ml) (killing)” value (non-growing UPEC CFT073; E. coli in 1:4 CA-MHB (pH 7.4), drug conc. 2.5, vs 8.977 before treatment) was 0.161 log10(CFU/ml). For the same compound, the “log10(CFU/ml) … replicate 1” value (non-growing UPEC CFT073; [6]) was 8.362 log10(CFU/ml), the “log10(CFU/ml) … replicate 2” value (non-growing UPEC CFT073; [6]) was 8.230 log10(CFU/ml) and the “log10(CFU/ml) … replicate 3” value (non-growing UPEC CFT073; [6]) was 8.000 log10(CFU/ml). For the same compound, the “average Δlog10(CFU/ml) (killing)” value (non-growing UPEC CFT073; E. coli in 1:4 CA-MHB (pH 7.4), drug conc. 5, vs 8.977 before treatment) was 0.780 log10(CFU/ml), the “log10(CFU/ml) … replicate 1” value (non-growing UPEC CFT073; [7]) was 7.491 log10(CFU/ml) and the “log10(CFU/ml) … replicate 2” value (non-growing UPEC CFT073; [7]) was 7.954 log10(CFU/ml). For the same compound, the “log10(CFU/ml) … replicate 3” value (non-growing UPEC CFT073; [7]) was 8.079 log10(CFU/ml), the “average Δlog10(CFU/ml) (killing)” value (non-growing UPEC CFT073; E. coli in 1:4 CA-MHB (pH 7.4), drug conc. 10, vs 8.977 before treatment) was 1.136 log10(CFU/ml) and the “log10(CFU/ml) … replicate 1” value (non-growing UPEC CFT073; [8]) was 7.114 log10(CFU/ml). The “log10(CFU/ml) … replicate 2” value (non-growing UPEC CFT073; [8]) was 6.230 log10(CFU/ml), the “log10(CFU/ml) … replicate 3” value (non-growing UPEC CFT073; [8]) was 8.000 log10(CFU/ml) and the “average Δlog10(CFU/ml) (killing)” value (non-growing UPEC CFT073; E. coli in LPM (pH 5.5), drug conc. 0.25, vs 7.350 before treatment) was 0.236 log10(CFU/ml). The “log10(CFU/ml) … replicate 1” value (non-growing UPEC CFT073; [9]) was 7.114 log10(CFU/ml), the “log10(CFU/ml) … replicate 2” value (non-growing UPEC CFT073; [9]) was 6.447 log10(CFU/ml) and the “log10(CFU/ml) … replicate 3” value (non-growing UPEC CFT073; [9]) was 7.699 log10(CFU/ml). The “average Δlog10(CFU/ml) (killing)” value (non-growing UPEC CFT073; E. coli in LPM (pH 5.5), drug conc. 0.5, vs 7.350 before treatment) was 0.264 log10(CFU/ml), the “log10(CFU/ml) … replicate 1” value (non-growing UPEC CFT073; [10]) was 6.845 log10(CFU/ml) and the “log10(CFU/ml) … replicate 2” value (non-growing UPEC CFT073; [10]) was 6.342 log10(CFU/ml). For the same compound, the “log10(CFU/ml) … replicate 3” value (non-growing UPEC CFT073; [10]) was 7.204 log10(CFU/ml), the “average Δlog10(CFU/ml) (killing)” value (non-growing UPEC CFT073; E. coli in LPM (pH 5.5), drug conc. 1, vs 7.350 before treatment) was 0.553 log10(CFU/ml) and the “log10(CFU/ml) … replicate 1” value (non-growing UPEC CFT073; [11]) was 6.301 log10(CFU/ml). The “log10(CFU/ml) … replicate 2” value (non-growing UPEC CFT073; [11]) was 6.699 log10(CFU/ml), the “log10(CFU/ml) … replicate 3” value (non-growing UPEC CFT073; [11]) was 6.580 log10(CFU/ml) and the “average Δlog10(CFU/ml) (killing)” value (non-growing UPEC CFT073; E. coli in LPM (pH 5.5), drug conc. 2.5, vs 7.350 before treatment) was 0.824 log10(CFU/ml). The “log10(CFU/ml) … replicate 1” value (non-growing UPEC CFT073; [12]) was 6.000 log10(CFU/ml), the “log10(CFU/ml) … replicate 2” value (non-growing UPEC CFT073; [12]) was 6.301 log10(CFU/ml) and the “log10(CFU/ml) … replicate 3” value (non-growing UPEC CFT073; [12]) was 5.903 log10(CFU/ml). The “average Δlog10(CFU/ml) (killing)” value (non-growing UPEC CFT073; E. coli in LPM (pH 5.5), drug conc. 5, vs 7.350 before treatment) was 1.282 log10(CFU/ml), the “log10(CFU/ml) … replicate 1” value (non-growing UPEC CFT073; [13]) was 6.146 log10(CFU/ml) and the “log10(CFU/ml) … replicate 2” value (non-growing UPEC CFT073; [13]) was 6.114 log10(CFU/ml). The “log10(CFU/ml) … replicate 3” value (non-growing UPEC CFT073; [13]) was 5.544 log10(CFU/ml) and the “average Δlog10(CFU/ml) (killing)” value (non-growing UPEC CFT073; E. coli in LPM (pH 5.5), drug conc. 10, vs 7.350 before treatment) was 1.416 log10(CFU/ml).
